Laboratory results: patent publication US20110294890A1, “Neramexane for the treatment or prevention of inner ear disorders” (MERZ PHARMA GmbH & CO. KGaA, priority 2010, published 2011)

Test system: subjects with subjective tinnitus of at least moderate severity
Experiment: Double blind placebo controlled Phase III clinical trial of neramexane for treatment of tinnitus (TBF-12 total score)
Type: in vivo, human
Details: for Change in the TBF-12 total score from baseline to Week 17/EOT, LSmean: 50/75 mg/d, mean adjusted for covariates (ANCOVA); for Change in the TBF-12 total score from baseline to Week 17/EOT, LSmean / Change in the TBF-12 total score from baseline to Week 17/EOT, Mean change (SD): 17 weeks; for Change in the TBF-12 total score from baseline to Week 17/EOT, LSmean / Change in the TBF-12 total score from baseline to Week 17/EOT, Mean change (SD) / Comparison between treatment groups, LSmean (ner − pla), change in TBF-12 total score: FAS-LOCF; for Change in the TBF-12 total score from baseline to Week 17/EOT, Mean change (SD): neramexane mesylate 50/75 mg/d by body weight; for Comparison between treatment groups, LSmean (ner − pla), change in TBF-12 total score: estimated difference Neramexane − Placebo from ANCOVA
Protocol: The objective of this clinical trial was to assess the efficacy of neramexane as a treatment for tinnitus. The primary objective of this 17 weeks double-blind, randomized placebo-controlled study was to compare the efficacy, tolerability and safety of neramexane mesylate at two different, weight-adapted dosages (50 or 75 mg/d) with placebo in subjects with subjective tinnitus of at least moderate severity.
In a double-blind, multicenter, randomized, placebo-controlled, parallel-group study, the efficacy of neramexane in subjects suffering from tinnitus of at least moderate severity was assessed. A total of 411 patients, who fulfilled particular inclusion criteria and met none of particular exclusion criteria, were randomized to one of two double-blind treatment groups (neramexane mesylate 50 or 75 mg/d depending on body weight, or placebo).
Subjects were treated for 17 weeks with neramexane or placebo including a four- resp. five-week up-titration period, depending on study drug dose, followed by 30 to 35 days treatment-free observational period. Alternatively to treatment-free observational period, subjects could immediately at Week 17 start with a one-year open label treatment study.
Main inclusion criteria were: • Diagnosis of “subjective tinnitus” • Tinnitus duration of at least 3 months and less or equal to 12 months (subacute tinnitus) • Persistent, uni- or bilateral tinnitus • THI-12≧9 (=at least moderate tinnitus severity) • Hospital Anxiety and Depression (HADS) subscores for depression ≦10 and for anxiety ≦10
Main exclusion criteria were: • Intermittent or pulsatile tinnitus • Tinnitus as a concomitant symptom of an otological/neurological disease • Concomitant tinnitus treatment • Application for a pension/retirement pay or granted pension/retirement because of tinnitus.
Patients with a target daily dose of 50 mg neramexane mesylate (<90 kg body weight) were to reach steady state after four weeks, patients with a target total daily dose of 75 mg neramexane mesylate (≧90 kg body weight) were to reach steady state after five weeks of treatment. For patients who experienced dose limiting adverse events with the 75 mg dose, the dosage was reduced by switching the patient to 50 mg/day. Patients unable to tolerate a minimum dosage of 50 mg/day discontinued.
Patient eligibility for the study was evaluated via a check of inclusion/exclusion criteria. The subject completed a Tinnitus-Beeinträchtigungs-Fragebogen (TBF-12=Tinnitus. Handicap Inventory (THI-12)) (i.e., a 12-item modified and validated version (Greimel K V et al., Tinnitus-Beeinträchtigungs-Fragebogen (TBF-12). Manual. Frankfurt am Main: Swets & Zeitlinger B. V.; 2000) of the 25-item Tinnitus Handicap Inventory or THI (Newman C W, et al. Development of the Tinnitus Handicap Inventory. Arch Otolaryngol Head Neck Surg 1996; 122(2): 143-148; Newman C W, et al. Psychometric adequacy of the Tinnitus Handicap Inventory (THI) for evaluating treatment outcome. J Am Acad Audiol 1998; 9(2): 153-160.)). The TBF-12 items can be grouped in 2 factorial scores: an emotional-cognitive and a functional-communicational factor. At Visit 1. patients also completed a Tinnitus Rating Scale (TRS, Likert scores on Tinnitus Loudness, Tinnitus Impact on Life, and Tinnitus Annoyance), and the Hospital Anxiety and Depression Scale Audiology/psychoacoustic measurements were performed unless results from previous examinations performed no more than one year prior to Screening were available.
Visit 7 (Week 17, end of treatment (EOT)). This visit occurred at the end of the 12-week fixed-dose double-blind treatment period. This visit was also to be performed for patients who discontinued prematurely. The subject was asked about adverse events and changes in concomitant medication/disease, which changes are documented. A clinical laboratory evaluation was performed as well as ECG and physical examination (including body weight). Blood samples were collected in order to determine neramexane concentration. […]

SMILES: CC1(C)CC(C)(C)CC(C)(N)C1 [Neramexane, 1-amino-1,3,3,5,5-pentamethylcyclohexane]
- Change in the TBF-12 total score from baseline to Week 17/EOT, LSmean (Females, N=74): −3.8
- Change in the TBF-12 total score from baseline to Week 17/EOT, Mean change (SD) (Females, N=74): −3.1 (4.2)
- Comparison between treatment groups, LSmean (ner − pla), change in TBF-12 total score (Females, P-value 0.0122): −1.7
- Change in the TBF-12 total score from baseline to Week 17/EOT, LSmean (Total population, N=203): −3.0
- Change in the TBF-12 total score from baseline to Week 17/EOT, Mean change (SD) (Total population, N=203): −2.5 (4.3)
- Comparison between treatment groups, LSmean (ner − pla), change in TBF-12 total score (Total population, P-value 0.1997): −0.5
- Improvement for the treatment of tinnitus in subgroups of women (women 26 to 65 or 46 to 65 years of age, and/or free from clinical signs of depression (HADS-D 7 or less)): an improvement
- Improvement for the treatment of tinnitus in women (TBF-12 total score) (women, compared to the effect found for the total patient population): statistically significant improvement
